According to US7795290B2 (Genentech, Inc., priority 2004, dated 2010):

biological target: T1, AKT1 (Homo sapiens, UniProt P31749); test: HTS ATP-utilizing enzyme assay, off-chip mobility-shift (Caliper HTS 250); format: biochemical; settings: kinase named = inhibitory activity/selectivity; test compound 10 μM; active = greater than three-sigma from mean
T1 construct: purchased Upstate 14-276
Method in brief: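 AKT1 activity was measured by off-chip mobility shift (Caliper HTS 250) as the ratio of peptide substrate to phosphorylated product. Test compound was at 10 μM, with 2.5 h incubation at 20–22° C. EDTA wells served as 100% control and DMSO wells as 0%. Hits were called at three-sigma limits.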

T1 sequence (P31749 whole entry): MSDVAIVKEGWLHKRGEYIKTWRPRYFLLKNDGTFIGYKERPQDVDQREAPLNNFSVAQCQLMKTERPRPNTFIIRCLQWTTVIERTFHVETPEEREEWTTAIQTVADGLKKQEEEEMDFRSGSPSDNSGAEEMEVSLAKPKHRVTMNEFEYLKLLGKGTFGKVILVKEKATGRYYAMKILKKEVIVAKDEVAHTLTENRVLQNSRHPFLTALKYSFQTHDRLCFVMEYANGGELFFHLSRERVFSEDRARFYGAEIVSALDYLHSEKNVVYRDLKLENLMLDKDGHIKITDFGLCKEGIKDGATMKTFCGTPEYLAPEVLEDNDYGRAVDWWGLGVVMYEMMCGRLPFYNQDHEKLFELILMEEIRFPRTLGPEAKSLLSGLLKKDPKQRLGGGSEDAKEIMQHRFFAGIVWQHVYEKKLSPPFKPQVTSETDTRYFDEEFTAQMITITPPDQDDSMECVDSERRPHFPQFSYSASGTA

| Activity | SMILES |
| --- | --- |
| AKT1 | CC(C)CN(C(=O)CCN(C(=O)c1cccs1)c1nc(-c2cc3ccccc3o2)cs1)C1CCS(=O)(=O)C1 (stereo not drawn) [N-(4-(benzofuran-2-yl)thiazol-2-yl)-N-(3-(isobutyl(1,1-dioxo-tetrahydrothiophen-3-yl)amino)-3-oxopropyl)thiophene-2-carboxamide] |
| AKT1 | O=C(O)Cc1ccc(-c2csc(N(CCCN3CCOCC3)C(=O)c3cccs3)n2)s1 [2-(5-(2-(N-(3-morpholinopropyl)thiophene-2-carboxamido)thiazol-4-yl)thiophen-2-yl)acetic acid] |
| AKT1 | COC(=O)c1ccc(-c2csc(N(CCCN3CCOCC3)C(=O)c3cccs3)n2)nc1 [methyl 6-(2-(N-(3-morpholinopropyl)thiophene-2-carboxamido)thiazol-4-yl)nicotinate] |
| AKT1 | CS(=O)(=O)N1CCN(CCCN(C(=O)c2cccs2)c2nc(-c3cc4ccccc4o3)cs2)CC1 [N-(4-(benzofuran-2-yl)thiazol-2-yl)-N-(3-(4-(methylsulfonyl)piperazin-1-yl)propyl)thiophene-2-carboxamide] |
| AKT1 | CC(C)(C)OC(=O)NC1CCN(C(=O)CCCN(C(=O)c2cccs2)c2nc(-c3cc4ccccc4o3)cs2)C1 (stereo not drawn) [tert-butyl 1-(4-(N-(4-(benzofuran-2-yl)thiazol-2-yl)thiophene-2-carboxamido)butanoyl)pyrrolidin-3-ylcarbamate] |
| AKT1 | O=C(CCN(C(=O)c1cccs1)c1nc(-c2cc3ccccc3o2)cs1)N1CCSC1 [N-(4-(benzofuran-2-yl)thiazol-2-yl)-N-(3-oxo-3-(thiazolidin-3-yl)propyl)thiophene-2-carboxamide] |
| AKT1 | O=C(c1cccs1)N(CCCN1CCOCC1)c1nc(-c2ccc(OC(F)F)cc2)cs1 [N-(4-(4-(difluoromethoxy)phenyl)thiazol-2-yl)-N-(3-morpholinopropyl)thiophene-2-carboxamide] |
| AKT1 | CCOC(=O)CC1CCN(C(=O)CCCN(C(=O)c2cccs2)c2nc(-c3cc4ccccc4o3)cs2)CC1 [ethyl 2-(1-(4-(N-(4-(benzofuran-2-yl)thiazol-2-yl)thiophene-2-carboxamido)butanoyl)piperidin-4-yl)acetate] |
| AKT1 | COc1ccc(-c2csc(N(CCCN3CCCC3=O)C(=O)c3cccs3)n2)cc1OC [N-(4-(3,4-dimethoxyphenyl)thiazol-2-yl)-N-(3-(2-oxopyrrolidin-1-yl)propyl)thiophene-2-carboxamide] |
| AKT1 | O=C(O)COc1ccc(-c2csc(N(CCCN3CCOCC3)C(=O)c3cccs3)n2)cc1 [2-(4-(2-(N-(3-morpholinopropyl)thiophene-2-carboxamido)thiazol-4-yl)phenoxy)acetic acid] |
| AKT1 | O=C(NCCO)c1ccc(-c2csc(N(CCCN3CCOCC3)C(=O)c3cccs3)n2)cc1 [N-(4-(4-(2-hydroxyethylcarbamoyl)phenyl)thiazol-2-yl)-N-(3-morpholinopropyl)thiophene-2-carboxamide] |
| AKT1 | CCOC(=O)C1CCCN(CCCN(C(=O)c2cccs2)c2nc(-c3cc4ccccc4o3)cs2)C1 (stereo not drawn) [ethyl 1-(3-(N-(4-(benzofuran-2-yl)thiazol-2-yl)thiophene-2-carboxamido)propyl)piperidine-3-carboxylate] |
| AKT1 | O=C(CCN1CCOCC1)NCCCN(C(=O)c1cccs1)c1nc(-c2cc3ccccc3o2)cs1 [N-(4-(benzofuran-2-yl)thiazol-2-yl)-N-(3-(3-morpholinopropanamido)propyl)thiophene-2-carboxamide] |
| AKT1 | CCN(C(C)=O)C1CCN(CCCN(C(=O)c2cccs2)c2nc(-c3cc4ccccc4o3)cs2)C1 (stereo not drawn) [N-(4-(benzofuran-2-yl)thiazol-2-yl)-N-(3-(3-(N-ethylacetamido)pyrrolidin-1-yl)propyl)thiophene-2-carboxamide] |
| AKT1 | Cc1ccc(-c2csc(N(CCCN3CCOCC3)C(=O)c3cccs3)n2)cc1 [N-(3-morpholinopropyl)-N-(4-p-tolylthiazol-2-yl)thiophene-2-carboxamide] |

More lines, now with the values behind:

| SMILES | Activity |
| --- | --- |
| COc1ccc(-c2csc(N(CCCN3CCOCC3)C(=O)c3ccc(Cl)cc3)n2)cc1 [4-chloro-N-(4-(4-methoxyphenyl)thiazol-2-yl)-N-(3-morpholinopropyl)benzamide] | AKT1 |
| O=C(c1ccccc1)N(CCCN1CCCCCC1)c1nc(-c2ccccc2)cs1 [N-(3-(azepan-1-yl)propyl)-N-(4-phenylthiazol-2-yl)benzamide] | AKT1 |
| COc1ccc(-c2csc(N(CCCN3CCOCC3)C(=O)C3=CCCC3)n2)cc1 [N-(4-(4-methoxyphenyl)thiazol-2-yl)-N-(3-morpholinopropyl)cyclopent-1-enecarboxamide] | AKT1 |
| O=C(c1ccco1)N(CCCN1CCOCC1)c1nc(-c2cc(-c3ccccc3)no2)cs1 [N-(3-morpholinopropyl)-N-(4-(3-phenylisoxazol-5-yl)thiazol-2-yl)furan-2-carboxamide] | AKT1 |

biological target: T2, DYRK2 (Homo sapiens, UniProt Q92630); test: as above; format: biochemical; settings: kinase named = inhibitory activity/selectivity; test compound 10 μM; active = greater than three-sigma from mean
T2 sequence (Q92630 1-601): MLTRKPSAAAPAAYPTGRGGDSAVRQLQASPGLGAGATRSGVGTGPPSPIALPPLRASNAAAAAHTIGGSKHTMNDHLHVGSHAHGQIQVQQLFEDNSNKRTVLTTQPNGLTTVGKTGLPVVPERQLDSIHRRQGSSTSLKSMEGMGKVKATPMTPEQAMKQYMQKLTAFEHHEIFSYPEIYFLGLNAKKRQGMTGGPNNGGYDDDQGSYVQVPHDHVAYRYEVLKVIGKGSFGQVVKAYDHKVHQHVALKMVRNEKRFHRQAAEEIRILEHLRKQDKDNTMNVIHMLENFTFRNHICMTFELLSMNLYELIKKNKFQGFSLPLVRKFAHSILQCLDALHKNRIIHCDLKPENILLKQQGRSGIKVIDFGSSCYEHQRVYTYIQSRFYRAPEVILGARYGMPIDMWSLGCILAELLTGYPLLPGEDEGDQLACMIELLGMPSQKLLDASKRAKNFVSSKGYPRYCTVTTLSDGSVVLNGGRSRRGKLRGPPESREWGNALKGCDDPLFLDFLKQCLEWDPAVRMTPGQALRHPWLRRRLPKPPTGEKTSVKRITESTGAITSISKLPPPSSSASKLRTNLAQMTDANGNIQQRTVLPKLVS
From the text: The following procedures describe the reagent and plate preparation for a HTS of an ATP-utilizing enzyme, such as a protein kinase, run in an off-chip mobility-shift assay format. The following provides an HTS protocol for running a protein kinase HTS screen on a Caliper HTS 250 microfluidics system. The following parameters are dependent on the protein kinase used and can be determined by one skilled in the art as part of a typical assay development process. For example, the peptide substrate used can be identified from the current literature, by screening a peptide library of potential protein kinase substrates, or by other applicable means accepted in the field.
Assays to determine the kinase inhibitory activity of chemical entities of the present disclosure were performed using a Caliper HTS 250 microfluidics device, Greiner U-bottom assay plates, a Multidrop for transfer of reagents, and Biomek FX (AMNCBM03) software. Initially, 2.4 μL of a 1 mM solution of a test compound in 100% DMSO was added to a well of the Greiner U-bottom plate. A single Greiner U-bottom plate having 24×16 wells could include multiple test compounds. Next, 40 μL of 1.06× Assay Buffer was added to each well of the assay plate. Using the Biomek FX, 10 μL of 0.5 M EDTA was added by the span-8 to wells, indicated as 100% Control and 2.4 μL of 100% DMSO was added by the span-8 to wells, indicated as 0% Control. Using the Multidrop, 10 μL of 2.5× Enzyme Buffer, followed by 10 μL of 2.5× Substrate Buffer was added to each well of the assay plate. The total reaction volume in each well was 25 μL, and the concentration of the test compound was 10 μM. The assay plate was incubated for 2.5 hrs at 20° C. to 22° C. After the incubation period, using the Multidrop, 45 μL of 1.55× Termination Buffer was added to each well of the assay plate to stop the reaction. The inhibition of the ATP-utilizing enzyme, such as a particular protein kinase, was determined by measuring the ratio of the peptide substrate to phosphorylated product for each well of the assay plate using the Caliper HTS 250 system.
The use of three-sigma statistical limits represents a conservative method for declaring potential hits among targets. The three-sigma activity, as well as the mean population activity, can be different for each target enzyme. This method has an expected false positive rate, from an in-control measurement process, of […].
Each chemical entity listed in Table 2 was tested for protein kinase inhibitory activity according to the biological assays and definitions of protein kinase inhibitory activity as described herein. For each exemplary compound listed in Table 2, the inhibitory activity for at least one protein kinase according to the biological assays and definitions of protein kinase inhibitory activity as described herein is indicated.

| SMILES | Activity |
| --- | --- |
| CCC(=O)N(CCCOC)c1nc(-c2ccc(OC)cc2)cs1 [N-(4-(4-methoxyphenyl)thiazol-2-yl)-N-(3-methoxypropyl)propionamide] | DYRK2 |
| CCC(=O)N(CC1CCCO1)c1nc(-c2ccc(OC)cc2)cs1 (stereo not drawn) [N-(4-(4-methoxyphenyl)thiazol-2-yl)-N-((tetrahydrofuran-2-yl)methyl)propionamide] | DYRK2 |
| COc1ccc(-c2csc(N(Cc3ccco3)C(=O)CCC(=O)O)n2)cc1 [4-((furan-2-ylmethyl)(4-(4-methoxyphenyl)thiazol-2-yl)amino)-4-oxobutanoic acid] | DYRK2 |
| COCCN(C(=O)CCC(=O)O)c1nc(-c2ccc(OC)cc2)cs1 [4-((2-methoxyethyl)(4-(4-methoxyphenyl)thiazol-2-yl)amino)-4-oxobutanoic acid] | DYRK2 |
| COc1ccc(-c2csc(N(CCCN3CCOCC3)C(=O)CC(C)(C)C)n2)cc1 [N-(4-(4-methoxyphenyl)thiazol-2-yl)-3,3-dimethyl-N-(3-morpholinopropyl)butanamide] | DYRK2 |
| COc1ccc(-c2csc(N(CCCN3CCOCC3)C(=O)Cc3cccc(Cl)c3)n2)cc1 [2-(3-chlorophenyl)-N-(4-(4-methoxyphenyl)thiazol-2-yl)-N-(3-morpholinopropyl)acetamide] | DYRK2 |
| COCCN(C(C)=O)c1nc(-c2ccc(OC)cc2)cs1 [N-(2-methoxyethyl)-N-(4-(4-methoxyphenyl)thiazol-2-yl)acetamide] | DYRK2 |
| CCN(C(=O)CCC(=O)O)c1nc(-c2ccc(OC)cc2)cs1 [4-(ethyl(4-(4-methoxyphenyl)thiazol-2-yl)amino)-4-oxobutanoic acid] | DYRK2 |
| COc1ccc(-c2csc(N(C)C(C)=O)n2)cc1 [N-(4-(4-methoxyphenyl)thiazol-2-yl)-N-methylacetamide] | DYRK2 |
| COc1ccc(-c2csc(N(CC3CCCO3)C(=O)CCC(=O)O)n2)cc1 (stereo not drawn) [4-((4-(4-methoxyphenyl)thiazol-2-yl)((tetrahydrofuran-2-yl)methyl)amino)-4-oxobutanoic acid] | DYRK2 |
| COc1ccc(-c2csc(N(CCc3ccccc3)C(=O)CCC(=O)O)n2)cc1 [4-((4-(4-methoxyphenyl)thiazol-2-yl)(phenethyl)amino)-4-oxobutanoic acid] | DYRK2 |
